Measured values taken from US9353093B2, “Indole-1-carboxamides as kinase inhibitors” (Allergan, Inc., priority 2014, dated 2016).
Like-named read-outs stand apart in the source and are kept apart here.

Legend:
[1] = system: VEGFR2 in HUVEC (human umbilical vein endothelial cells); assay: VEGFR2 Cellular Assay (FLIPR, VEGF induced increases in intracellular calcium); assay type: cell-based
Description: VEGFR2 Cellular Assay Automated FLIPR (Fluorometric Imaging Plate Reader) technology was used to screen for inhibitors of VEGF induced increases in intracellular calcium levels in fluorescent dye loaded endothelial cells. HUVEC (human umbilical vein endothelial cells) (Clonetics) were seeded in 384-well fibronectin coated black-walled plates overnight @37° C./5% CO2. Cells were loaded with calcium indicator Fluo-4 for 45 minutes at 37° C. Cells were washed 2 times (EIx405, Biotek Instruments) to remove extracellular dye. For screening, cells were pre-incubated with test agents for 30 minutes, at a single concentration (10 uM) or at concentrations ranging from 0.0001 to 10.0 uM followed by VEGF165 stimulation (10 ng/mL). Changes in fluorescence at 516 nm were measured simultaneously in all 384 wells using a cooled CCD camera. Data were generated by determining max-min fluorescence levels for unstimulated, stimulated, and drug treated samples. IC50 values for test compounds were calculated from % inhibition of VEGF stimulated responses in the absence of inhibitor.

[2] = target: purified cytoplasmic domain KDR protein (VEGFR2) (Homo sapiens (Human), UniProt P35968); assay: VEGFR2 Kinase Assay; assay type: biochemical; details: 2.7 μM ATP, poly-Glu-Tyr (4:1) substrate, 15 minute incubation at 30° C.; read-out: Enzyme VEGFR2 IC50
purified cytoplasmic domain KDR protein (VEGFR2), sequence (P35968 786-1356): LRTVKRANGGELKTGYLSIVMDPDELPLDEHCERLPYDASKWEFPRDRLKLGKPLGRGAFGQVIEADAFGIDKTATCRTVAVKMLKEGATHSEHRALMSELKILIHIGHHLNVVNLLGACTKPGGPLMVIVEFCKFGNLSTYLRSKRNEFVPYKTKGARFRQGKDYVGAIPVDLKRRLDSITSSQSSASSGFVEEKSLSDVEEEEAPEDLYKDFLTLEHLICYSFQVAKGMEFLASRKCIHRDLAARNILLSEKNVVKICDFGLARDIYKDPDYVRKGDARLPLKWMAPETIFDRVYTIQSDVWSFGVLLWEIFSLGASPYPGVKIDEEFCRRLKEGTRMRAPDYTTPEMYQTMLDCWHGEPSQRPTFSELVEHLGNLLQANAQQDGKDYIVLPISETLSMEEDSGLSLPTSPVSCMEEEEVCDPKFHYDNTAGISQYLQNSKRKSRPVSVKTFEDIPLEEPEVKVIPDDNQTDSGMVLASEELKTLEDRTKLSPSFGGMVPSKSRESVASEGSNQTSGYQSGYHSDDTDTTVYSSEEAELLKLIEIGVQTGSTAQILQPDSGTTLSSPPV
Description: VEGFR2 Kinase Assay Biochemical KDR kinase assays were performed in 96 well microtiter plates that were coated overnight with 75 μg/well of poly-Glu-[…]:1) in 10 mM Phosphate Buffered Saline (PBS), pH 7.4. […] Reactions were carried out in 100 μL reaction volumes containing 2.7 μM ATP in kinase buffer (50 mM Hepes buffer pH 7.4, 20 mM MgCl2, 0.1 mM MnCl2 and 0.2 mM Na3VO4). […] Reactions were initiated by the addition 20 ul per well of kinase buffer containing 200-300 ng purified cytoplasmic domain KDR protein (BPS Bioscience, San Diego, Calif.). Following a 15 minute incubation at 30° C., the reactions were washed 2 mls per well PBS-T. 100 μl of a monoclonal anti-phosphotyrosine antibody-peroxidase conjugate diluted 1:10,000 in PBS-T was added to the wells for 30 minutes. Following a 2 mls per well wash with PBS-Tween-20, 100 μl of O-Phenylenediamine Dihydrochloride in phosphate-citrate buffer, containing urea hydrogen peroxide, was added to the wells for 7-10 minutes as a colorimetric substrate for the peroxidase. […] IC50 values for compound inhibition were calculated directly from graphs of optical density (arbitrary units) versus compound concentration following subtraction of blank values.

[3] = target: purified cytoplasmic domain PDGFR-b protein (PDGFRβ) (Homo sapiens (Human), UniProt P09619); assay: PDGFRβ Kinase Assay; assay type: biochemical; details: 36 μM ATP, poly-Glu-Tyr (4:1) substrate, 60 minute incubation at 30° C.; read-out: Enzyme PDGFβ IC50
purified cytoplasmic domain PDGFR-b protein (PDGFRβ), sequence (P09619 554-1106): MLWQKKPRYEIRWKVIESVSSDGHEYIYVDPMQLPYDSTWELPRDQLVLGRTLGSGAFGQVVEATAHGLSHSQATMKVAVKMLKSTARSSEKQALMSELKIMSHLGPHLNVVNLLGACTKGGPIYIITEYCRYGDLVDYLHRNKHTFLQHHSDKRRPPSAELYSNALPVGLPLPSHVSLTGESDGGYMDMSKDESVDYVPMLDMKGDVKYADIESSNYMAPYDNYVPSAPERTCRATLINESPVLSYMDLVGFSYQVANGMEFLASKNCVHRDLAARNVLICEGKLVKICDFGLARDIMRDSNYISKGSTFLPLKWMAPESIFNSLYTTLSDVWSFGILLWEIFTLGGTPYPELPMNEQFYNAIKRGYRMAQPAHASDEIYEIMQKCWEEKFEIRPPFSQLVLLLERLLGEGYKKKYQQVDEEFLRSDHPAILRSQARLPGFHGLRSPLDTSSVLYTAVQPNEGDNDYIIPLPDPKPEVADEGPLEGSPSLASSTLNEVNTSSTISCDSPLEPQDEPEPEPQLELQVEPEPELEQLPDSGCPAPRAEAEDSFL
Description: Biochemical PDGFRβ kinase assays were performed in 96 well microtiter plates that were coated overnight with 75 μg of poly-Glu-Tyr (4:1) in 10 mM Phosphate Buffered Saline (PBS), pH 7.4. […] Reactions were carried out in 100 μL reaction volumes containing 36 μM ATP in kinase buffer (50 mM Hepes buffer pH 7.4, 20 mM MgCl2, 0.1 mM MnCl2 and 0.2 mM Na3VO4). […] Reactions were initiated by the addition 20 ul per well of kinase buffer containing 200-300 ng purified cytoplasmic domain PDGFR-b protein (Millipore). Following a 60 minute incubation at 30° C., the reactions were washed 2 mls per well PBS-T. 100 μl of a monoclonal anti-phosphotyrosine antibody-peroxidase conjugate diluted 1:10,000 in PBS-T was added to the wells for 30 minutes. Following a 2 mls per well wash with PBS-Tween-20, 100 μl of O-Phenylenediamine Dihydrochloride in phosphate-citrate buffer, containing urea hydrogen peroxide, was added to the wells for 7-10 minutes as a colorimetric substrate for the peroxidase. […] IC50 values for compound inhibition were calculated directly from graphs of optical density (arbitrary units) versus compound concentration following subtraction of blank values.

[4] = read-out: Receptor VEGFR2 IC50 (nM)

IC50 [2] [µM] | IC50 [3] [µM] | Compound | IC50 [1, 4] [nM] | IC50 ([1]; VEGF165 stimulation (10 ng/mL), 30 minutes pre-incubation, Fluo-4 calcium, read-out: Receptor VEGFR2 IC50) [nM]
– | – | CCc1cccc(NC(=O)Nc2ccc(-c3cc4ccccc4n3C(N)=O)cc2)c1 [Example 1, 2-[4-({[(3-ethylphenyl)amino]carbonyl}amino)phenyl]-1H-indole-1-carboxamide] | 13 | –
– | 0.019 | NC(=O)n1c(-c2ccc(NC(=O)Nc3ccc(F)c(Cl)c3)cc2)cc2ccccc21 [Example 5, 2-[4-({[(3-chloro-4-fluorophenyl)amino]carbonyl}amino)phenyl]-1H-indole-1-carboxamide] | – | –
– | 0.055 | NC(=O)n1c(-c2ccc(NC(=O)Nc3cc(C(F)(F)F)ccc3F)cc2)cc2ccccc21 [Example 9, 2-{4-[({[2-fluoro-5-(trifluoromethyl)phenyl]amino}carbonyl)amino]phenyl}-1H-indole-1-carboxamide] | – | –
0.023 | 0.011 | Cc1ccc(NC(=O)Nc2ccc(-c3cc4ccccc4n3C(N)=O)cc2)cc1 [Example 11, 2-[4-({[(4-methylphenyl)amino]carbonyl}amino)phenyl]-1H-indole-1-carboxamide] | – | > 10000
0.174 | 0.118 | Cc1ccccc1NC(=O)Nc1ccc(-c2cc3ccccc3n2C(N)=O)cc1 [Example 12, 2-[4-({[(2-methylphenyl)amino]carbonyl}amino)phenyl]-1H-indole-1-carboxamide] | – | –
0.276 | – | Cc1cccc(NC(=O)Nc2cccc(-c3cc4ccccc4n3C(N)=O)c2)c1 [Example 19, 2-[3-({[(3-methylphenyl)amino]carbonyl}amino)phenyl]-1H-indole-1-carboxamide] | – | –
0.24 | – | CCc1cccc(NC(=O)Nc2cccc(-c3cc4ccccc4n3C(N)=O)c2)c1 [Example 20, 2-[3-({[(3-ethylphenyl)amino]carbonyl}amino)phenyl]-1H-indole-1-carboxamide] | – | –
0.254 | 3.31 | NC(=O)n1c(-c2cccc(NC(=O)Nc3cccc(C(F)(F)F)c3)c2)cc2ccccc21 [Example 21, 2-{3-[({[3-(trifluoromethyl)phenyl]amino}carbonyl)amino]phenyl}-1H-indole-1-carboxamide] | – | –
0.249 | > 10 | NC(=O)n1c(-c2cccc(NC(=O)Nc3ccc(F)c(Cl)c3)c2)cc2ccccc21 [Example 22, 2-[3-({[(3-chloro-4-fluorophenyl)amino]carbonyl}amino)phenyl]-1H-indole-1-carboxamide] | – | –
0.334 | 3.03 | Cc1ccc(F)c(NC(=O)Nc2cccc(-c3cc4ccccc4n3C(N)=O)c2)c1 [Example 23, 2-[3-({[(2-fluoro-5-methylphenyl)amino]carbonyl}amino)phenyl]-1H-indole-1-carboxamide] | – | –
1.17 | – | Cc1cccc(C(=O)Nc2cccc(-c3cc4ccccc4n3C(N)=O)c2)c1 [Example 24, 2-{3-[(3-methylbenzoyl)amino]phenyl}-1H-indole-1-carboxamide] | – | –
– | 1.14 | Cc1cccc(NC(=O)Nc2csc(-c3cc4ccccc4n3C(N)=O)c2)c1 [Example 26, 2-[4-({[(3-methylphenyl)amino]carbonyl}amino)-2-thienyl]-1H-indole-1-carboxamide] | – | –
– | 0.152 | NC(=O)n1c(-c2cc(NC(=O)Nc3cccc(C(F)(F)F)c3)cs2)cc2ccccc21 [Example 27, 2-{4-[({[3-(trifluoromethyl)phenyl]amino}carbonyl)amino]-2-thienyl}-1H-indole-1-carboxamide] | – | –
0.06 | 0.264 | CCc1cccc(NC(=O)Nc2csc(-c3cc4ccccc4n3C(N)=O)c2)c1 [Example 28, 2-[4-({[(3-ethylphenyl)amino]carbonyl}amino)-2-thienyl]-1H-indole-1-carboxamide] | – | –
0.094 | 4.61 | Cc1ccc(F)c(NC(=O)Nc2csc(-c3cc4ccccc4n3C(N)=O)c2)c1 [Example 29, 2-[4-({[(2-fluoro-5-methylphenyl)amino]carbonyl}amino)-2-thienyl]-1H-indole-1-carboxamide] | – | –
0.083 | > 10 | NC(=O)n1c(-c2cc(NC(=O)Nc3ccc(F)c(Cl)c3)cs2)cc2ccccc21 [Example 30, 2-[4-({[(3-chloro-4-fluorophenyl)amino]carbonyl}amino)-2-thienyl]-1H-indole-1-carboxamide] | – | –
– | 0.151 | NC(=O)n1c(-c2cc(NC(=O)Nc3ccc(Cl)c(C(F)(F)F)c3)cs2)cc2ccccc21 [Example 31, 2-{4-[({[4-chloro-3-(trifluoromethyl)phenyl]amino}carbonyl)amino]-2-thienyl}-1H-indole-1-carboxamide] | – | –
3.19 | > 10 | Cc1ccoc1C(=O)Nc1csc(-c2cc3ccccc3n2C(N)=O)c1 [Example 32, 2-{4-[(3-methyl-2-furoyl)amino]-2-thienyl}-1H-indole-1-carboxamide] | – | –
3.65 | > 10 | Cc1ccc(F)c(C(=O)Nc2csc(-c3cc4ccccc4n3C(N)=O)c2)c1 [Example 33, 2-{4-[(2-fluoro-5-methylbenzoyl)amino]-2-thienyl}-1H-indole-1-carboxamide] | – | –

Compound | IC50 [2] [µM] | IC50 [3] [µM] | IC50 [1, 4] [nM] | IC50 ([1]; VEGF165 stimulation (10 ng/mL), 30 minutes pre-incubation, Fluo-4 calcium, read-out: Receptor VEGFR2 IC50) [nM]
COC(=O)c1ccc2cc(-c3ccc(NC(=O)Nc4cccc(C)c4)cc3)n(C(N)=O)c2c1 [Example 2, methyl 1-(aminocarbonyl)-2-[4-({[(3-methylphenyl)amino]carbonyl}amino)phenyl]-1H-indole-6-carboxylate] | 0.005 | 0.01 | 11 | –
Cc1cccc(NC(=O)Nc2ccc(-c3cc4ccccc4n3C(N)=O)cc2)c1 [Example 3, 2-[4-({[(3-methylphenyl)amino]carbonyl}amino)phenyl]-1H-indole-1-carboxamide] | 0.006 | 0.014 | 17 | –
NC(=O)n1c(-c2ccc(NC(=O)Nc3cccc(C(F)(F)F)c3)cc2)cc2ccccc21 [Example 6, 2-{4-[({[3-(trifluoromethyl)phenyl]amino}carbonyl)amino]phenyl}-1H-indole-1-carboxamide] | 0.009 | 0.028 | 58 | –
Cc1ccc(F)c(NC(=O)Nc2ccc(-c3cc4ccccc4n3C(N)=O)cc2)c1 [Example 7, 2-[4-({[(2-fluoro-5-methylphenyl)amino]carbonyl}amino)phenyl]-1H-indole-1-carboxamide] | 0.009 | 0.02 | 41 | –
COc1cccc(NC(=O)Nc2ccc(-c3cc4ccccc4n3C(N)=O)cc2)c1 [Example 8, 2-[4-({[(3-methoxyphenyl)amino]carbonyl}amino)phenyl]-1H-indole-1-carboxamide] | 0.011 | 0.012 | 45 | –
NC(=O)n1c(-c2ccc(NC(=O)Nc3ccccc3)cc2)cc2ccccc21 [Example 10, 2-{4-[(anilinocarbonyl)amino]phenyl}-1H-indole-1-carboxamide] | 0.022 | 0.023 | 150 | –
